Results: patent publication US20030114504A1, “Compositions and methods for the treatment of cancer” (priority 2001, published 2003)

Legend:
A2780S cells [1] = assay: Inhibition of tumor cell proliferation in vitro, 72 hour treatment; format: cell-based; conditions: Homo sapiens
[2] = system: A2780 ovarian carcinoma cells; assay: Clonogenic growth assay and drug combination studies; format: cell-based, human; conditions: clonogenic assays, single agent
A2780S cells [3] = assay: Cell cycle analysis by flow cytometry; format: cell-based, human; conditions: 170 nM
Description: Log phase A2780s cells were plated overnight in 6 well plates. […] Cells were harvested by trypsinization followed by centrifugation. Cell pellets were then resuspended by vortexing in 1 ml 80% methanol and fixed overnight at −20° C. Cells were recovered by centrifugation and washed two times with 1 ml of PBS. Cells were resuspended in 1 ml PBS, 2% FBS, 0.25% Triton X-100 and incubated at 4° C. for 10 minutes. Cells were again recovered by centrifugation and resuspended in 50 μl PBS, 2% FBS, 0.1% Triton X-100. Anti-Phospho-Threonine Proline antibody (IgM, New England Biolabs #9391S) was added and the cells were incubated for 30 minutes at 4° C. Cells were washed with PBS, 2% FBS, 0.1% Triton X-100 and resuspended in 50 μl PBS, 2% FBS, 0.1% Triton X-100. FITC-anti-Mouse antibody (Pharmingen #12064D) was added and incubated for 30 minutes at 4° C. in the dark. Cells were washed with PBS, 2% FBS, 0.1% Triton X-100 and resuspended in Propidium Iodide/RNase in PBS (10 μg/ml PI, 100 μg/ml RNase (DNase free)) and incubated at 37° C. for 30 minutes in the dark. Samples were analyzed using a flow cytometer.

[4] = system: PARP cleavage in A2780S cells; assay: PARP cleavage by western blot; format: cell-based, human; conditions: 24 hour time point
Description: FIG. 3. […]. Protein extracts were then examined by western blot using an anti-PARP antibody (Clonetech). The arrow signifies caspase cleaved PARP protein fragment.
Compound treated A2780S cells were harvested at approximately 70% confluence and total protein was prepared by lysing the cells in RIPA [50 mM Tris (pH8), 150 mM NaCl, 1% NP-40, 0.5% Na-deoxycolate, 0.1% SDS, 0.1% Na3VO4, 0.1 mM NaF, 10 mM β-glycerophosphate, plus Complete® protease inhibitors (Boehringer Mannhiem)] buffer. Cell pellets were resuspended at a density of<2×10^7 cells/ml and incubated for 20 minutes on ice followed by a high speed 14,000 rpm centrifugation. The protein supernatant was then removed from the debris and protein content was quantitated using the Micro-BCA assay (Pierce). Treated extracts (25 microgram/lane) were then separated using a 10% SDS-polyacrylamide gel (10.5×14 cm). Proteins were then transferred from the gel to PVDF-membrane (Millipore) by exposure to […] in a semi-dry blotting apparatus (Hoeffer). PVDF protein blots were then blocked with 5% non-fat milk in TTBS (0.1% Tween 20 in Tris-buffered saline). […]. The blots were then washed three times with TTBS and developed with ECL-plus western blotting detection system (Amersham).

in vivo = conditions: Balb/c nu/nu nude, mouse, in vivo
Description: (§1) In vivo Antitumor Testing
(§2) Paclitaxel was dissolved in a 50/50 mixture of ethanol and Cremophor® and stored at 4° C.; final dilution of paclitaxel was obtained immediately before drug administration with NaCl 0.9%. 5-FU was dissolved in normal saline (NaCl 0.9%). […] The volume of all compounds injected was 0.01 ml/g of mouse weight.
(§3) Solid Tumor Xenografts in Nude Mice.
(§4) All solid tumors were maintained in Balb/c nu/nu nude mice. Tumors were propagated as subcutaneous transplants using tumor fragments obtained from donor mice. All tumor implants for efficacy testing were subcutaneous (sc).
(§5) The required number of animals needed to detect a meaningful response were grouped at the start of the experiment and each was given a subcutaneous implant of a tumor fragment (˜50 mg) with a 13-gauge trocar. For treatment of early-stage tumors, the animals were again grouped before distribution to the various treatment and control groups. For treatment of animals with advanced-stage disease, tumors were allowed to grow to the pre-determined size window (animals with tumors outside the range were excluded) and animals were evenly distributed to various treatment and control groups. Treatment of each animal was based on individual body weight. Treated animals were checked daily for treatment related toxicity/mortality. Each group of animals was weighed before the initiation of treatment (Wt1) and then again following the last treatment dose (Wt2). The difference in body weight (Wt2-Wt1) provides a measure of treatment-related toxicity.
(§6) Tumor response was determined by measurement of tumors with a caliper twice a week, until the tumors reach a predetermined “target” size of 1 g. Tumor weights (mg) were estimated from the Formula: […]
(§7) Antitumor activity was evaluated at the maximum tolerated dose (MTD) which is defined as the dose level immediately […] which excessive toxicity (i.e. more than one death) occurred. […] When death occured, the day of death was recorded.
(§8) Tumor response end-point was expressed in terms of tumor growth delay (T-C value), defined as the difference in time (days) required for the treated tumors (T) to reach a predetermined target size compared to those of the control group ®.
(§9) To estimate tumor cell kill, the tumor volume doubling time (TVDT) was first calculated with the Formula:
(§10) TVDT=Median time (days) for control tumors to reach target size−Median time (days) for control tumors to reach half the target size

[5] = system: Colo205 human colon carcinoma; assay: Colo205 xenograft in nude mice; conditions: for tumor regression: at MTD; for antitumor activity (in words): head-to-head at MTD
Description: as §1, §2, §3, §4, §5, §6, §7, §8, §9, §10

[6] = system: A2780 human ovarian carcinoma; assay: A2780 xenograft in nude mice; format: in vivo
[7] = system: P388 mouse leukemia, Cyclin E transgenic mouse breast carcinoma, A2780, Colo205 and A431 tumor models; assay: Multiple murine and human tumor models in vivo; set-up: species or system mice
Description: The following tumors were used: A2780 human ovarian carcinoma, Br-cycE murine breast carcinoma, A431 human squamous cell carcinoma and Colo 205 colorectal carcinoma.
Compound 1 was compared head to head with flavopiridol in each of these models.

CC(C)(C)c1cnc(CSc2cnc(NC(=O)C3CCNCC3)s2)o1 [Compound 1, N-[5-[[[5-(1,1-Dimethylethyl)-2-oxazolyl]methyl]thio]-2-thiazolyl]-4-piperidinecarboxamide]
IC90 (A2780S cells [1]): 170 nM | drug exposure sufficient to elicit a maximal anti-proliferative response [2]: 8 h | % Apo (sub-G1 cells by DNA staining) (A2780S cells [3]; 8 hr. exposure): 6% | % G1 (A2780S cells [3]; 8 hr. exposure): 56% | % G2 (A2780S cells [3]; 8 hr. exposure): 22% | % M (A2780S cells [3]; 8 hr. exposure): 1% | % S (A2780S cells [3]; 8 hr. exposure): 15% | % Apo (sub-G1 cells by DNA staining) (A2780S cells [3]; 24 hr. exposure): 32 ± 12% | % G1 (A2780S cells [3]; 24 hr. exposure): 45% | % G2 (A2780S cells [3]; 24 hr. exposure): 9.7% | % M (A2780S cells [3]; 24 hr. exposure): 0.3% | % S (A2780S cells [3]; 24 hr. exposure): 8% | PARP cleavage (caspase activation) [4]: Extensive cleavage | MTD at 8 days (in vivo; ip): 36 mg/kg | log cell kill (LCK) ([5]; MTD of 36 mg/kg, IP, QD×8): > 2.0 LCK | tumor regression [5]: tumor regression | antitumor activity (in words) [5]: marked antitumor activity | schedule dependence of activity ([6]; IP): qdx8=qdx14>>>q2dx5=q4dx3 | efficacy ([6]; dosed IP, qdx8 schedule, multiple dose levels): curative efficacy | efficacy ([6]; dosed orally, qdx8 schedule): modest efficacy | efficacy ([6]; single 24 hour continuous infusion at the MTD): curative efficacy | anti-tumor activity in vivo [7]: broad spectrum anti-tumor activity

O=c1[nH]cc(F)c(=O)[nH]1 [Compound 5-FU, 5-fluorouracil, reference compound]
tumor regression [5]: failed to achieve tumor regression | antitumor activity (in words) [5]: considerably less active

CC(=O)O[C@H]1C(=O)[C@@]2(C)[C@H]([C@H](OC(=O)c3ccccc3)[C@]3(O)C[C@H](OC(=O)[C@H](O)[C@@H](NC(=O)c4ccccc4)c4ccccc4)C(C)=C1C3(C)C)[C@]1(OC(C)=O)CO[C@@H]1C[C@@H]2O [Paclitaxel, paclitaxel, reference compound]
MTD (in vivo; iv): 36 mg/kg | antitumor activity (in words) [5]: comparable to Compound 1
